Laboratory results published in patent publication EP1158297A1, “METHOD FOR SCREENING COMPOUND HAVING AFFINITY FOR VITAMIN D RECEPTOR” (CHUGAI SEIYAKU KABUSHIKI KAISHA, priority 1999, dated 2000).
Like-named read-outs stand apart in the source and are kept apart here.

How the values were obtained:
VDRE = assay: Reporter gene (CAT) assay using reporter gene vector having VDRE; assay type: cell-based, African green monkey; details: for VDRE-mediated transcription promoting activity: relative value with the EC50 value of 1α,25-dihydroxyvitamin D3 as 100%, COS-1 cells with rat vitamin D receptor expression vector, CAT ELISA, lower = more potent
Source text: The reporter gene vector having VDRE used was a product produced by integrating VDRE ([…]) of a mouse osteopontin gene into a cassette vector (pGCAT; Kato S. et al., Cell (1992)68, 731-742) containing a promoter region (-109/+10) of rabbit β-globin and CAT (chloramphenicol acetyltransferase). As an expression vector for β-galactosidase used for correction of transfection efficiency, pCH110 (Pharmacia) was used. As a carrier vector, BSM (BluescribeM13+: […]) was used.
The rat vitamin D receptor expression vector used was a product obtained by integrating cDNA of a rat vitamin D receptor into pSG5 ([…]).
COS-1 cells were cultured in a DMEM medium containing 5% FBS and 10 nM insulin, and cultures were subcultured at intervals of 3 or 4 days at a density of 1,500 to 3,000 cells/cm^2. The conditions for culture were 37°C and 5% CO2. For cultivation of COS-1 cells during reporter gene assay, a phenol red-free DMEM medium containing 5% DCC-FBS (charcoal-treated FBS) and 10 nM insulin was used. COS-1 cells were seeded into a 6-well plate at a density of 5 to 8 x 10^4 cells/1.75 mL/well. […]
After overnight culture, each well was washed with 1 mL/well of a phenol red-free DMEM medium. […] Then, the amount of CAT expressed was measured using a CAT ELISA kit (Boehringer Mannheim).
The cell lysate (10 µL), 175 µL of Buffer Z (60 mM Na2HPO4, 40 mM NaH2PO4, 10 mM KCl, 1 mM MgSO4) and 35 µL of 4 mg/mL ONPG (o-nitrophenyl-β-D-galactopyranoside; SIGMA) were mixed in a 96-well plate (Nunc-Immuno plate Maxi Sorp Surface) and the system was incubated for 1 hour at 37°C. Then, 100 µL of 1M Na2CO3 was added to terminate the reaction and A415 was measured with a plate reader. Based on the measured values, the number of units of the cell lysate was calculated from the following equation and the cell lysate in an amount corresponding to 15 units was used in CAT ELISA measurement. […]
Based on the measured values of CAT ELISA, the EC50 value of each derivative was calculated to evaluate the VDRE-mediated action.

osteoporosis model rats [1] = assay type: in vivo; details: OVX rats, third lumbar vertebra
Protocol: 7- to 9-week-old W-I female rats (Imamichi Institute for Animal Reproduction) were subject to ovariectomy. […] After the last dose, 24-hour urine was sampled and the blood was taken under ether anesthesia. After the animal was euthanized, the lumbar vertebrae were removed.
The lumbar bone mineral density was measured at the third lumbar vertebra site using a dual X-ray bone mineral content measuring device (DCS-600, ALOKA). The blood and urinary calcium concentrations and the urinary creatinine concentration were measured with an automatic analyzer (Model 7170, Hitachi).
Statistical processing was carried out using Statistic Analysis System (SAS) software. A comparison between a sham operation (sham) group and an ovariectomy (OVX) group was made by an unpaired t-test. A comparison between the OVX group and the drug treatment group, or a comparison between the sham group and the drug treatment group was made by Dunnett's multiple test. A P-value less then 5% was considered as a significant difference.

osteoporosis model rats [2] = assay: Bone mass decrease in osteoporosis model rats, oral treatment (Example 3); assay type: in vivo
Protocol: 8-week-old W-I female rats (Imamichi Institute for Animal Reproduction) were subjected to overiectomy. From the following day onward, 1α-hydroxyvitamin D3 was orally administered 5 times weekly in a daily dose of 0.1 µg/kg, or Compound No. 22 was orally administered daily for 5 weeks in a daily dose of 3 µg/kg given as a single dose or two divided doses. After the last dose, 24-hour urine was sampled and a blood sample was taken under ether anesthesia. After the animal was euthanized, the lumbar vertebrae were removed. The lumbar bone mineral density was measured at the third lumbar vertebra site using a dual X-ray bone mineral content measuring device (DCS-600EX, ALOKA). The blood and urinary calcium concentrations and the urinary creatinine concentration were measured with an automatic analyzer (Model 7170, Hitachi).
Statistical processing was carried out using basic software for statistical analysis (SAS). A comparison between the sham group and the OVX group, a comparison between the OVX group and the 1α-hydroxyvitamin D3 treatment group, or a comparison between the sham group and the 1α-hydroxyvitamin D3 treatment group was made by an unpaired t-test, with the p value less than 5% representing a significant difference. A comparison between the OVX group and the Compound No. 22 group, or a comparison between the sham group and the Compound No. 22 group was made by Dunnett's multiple test, with the p value less than 5% showing a significant difference.

AP-1 complex = assay: Reporter gene (luciferase) assay using reporter gene vector having AP-1 binding sequence; assay type: cell-based, human; details: IC37.5 value expressed as percentage of the value of 1α,25-dihydroxyvitamin D3 (100%); Jurkat cells with rat vitamin D receptor expression vector, PMA and ionomycin stimulation; lower = more potent
Source text: (§1) A basic vector was constructed by inserting a promoter region (-72/+47) of a human IL-2 gene into a cassette vector of luciferase (pXP2; described in S.K. Nordeen, Biotechniques, Vol. 6, pp. 454-456, (1988)). For a reporter gene vector having an AP-1 binding sequence, five AP-1 binding sequences ([…]) of a human collagenase (MMP-1) gene were inserted tandem into the basic vector. For a reporter gene vector having an NF-κB binding sequence, four NF-κB binding sequences ([…]) of a human immunoglobulin light chain κ gene were inserted tandem into the basic vector. The resulting products were used as the respective reporter gene vectors.
(§2) The rat vitamin D receptor expression vector used was a product obtained by inserting cDNA of a rat vitamin D receptor (described in James K. Burmester et al., Proc. Natl. Acad. Sci. USA, Vol. 85, pp. 9499-9502, […]) into the pSG5 ([…]).
(§3) Jurkat cells were cultured in RPMI-1640 (GIBCO BRL) containing 10% FBS and antibiotics. The culture was started at a density of 5 x 10^4 cells/mL and the cells were subcultured at intervals of 3 or 4 days to a density of 5 x 10^4 cells/mL. The conditions for culture were 37°C and 5% CO2. […] Both of the solutions were mixed and then allowed to stand for 30 minute at room temperature.

NF-κB family = assay: Reporter gene (luciferase) assay using reporter gene vector having NF-κB binding sequence; assay type: cell-based, human; details: IC37.5 value expressed as percentage of the value of 1α,25-dihydroxyvitamin D3 (100%); Jurkat cells with rat vitamin D receptor expression vector, PMA and ionomycin stimulation; lower = more potent
Source text: as §1, §2, §3

osteoporosis model rats [3] = assay: Bone strength decrease and bone resorption in osteoporosis model rats, oral treatment (Example 4); assay type: in vivo
Protocol: 13-month-old W-I female rats (Imamichi Institute for Animal Reproduction) were subject to overiectomy. From the following day onward, Compound No. 22 was administered p.o. daily for 3 months in a daily dose of 1.5 to 6 µg/kg given as two divided doses. After the last dose, 24-hour urine was sampled and a blood sample was taken under ether anesthesia. After the animal was euthanized, the lumbar vertebrae were removed.
The lumbar bone mineral density was measured at the second to fourth lumbar vertebra site using a dual X-ray bone mineral content measuring device (DCS-600EX, ALOKA). The bone strength of the fifth lumbar vertebra was measured with Autograph AG-2000E (Shimadzu Corp.). The blood calcium concentration and the urinary creatinine concentration were measured with an automatic analyzer (Model 7170, Hitachi). The urinary deoxypyridinoline was measured with Osteolinks DPD.
Statistical Analysis was carried out using Statistic Analysis System (SAS) software. A comparison between the sham group and the OVX group was made by an unpaired t-test. A comparison between the OVX group and the Compound No. 22 treatment group, or a comparison between the sham group and the Compound No. 22 treatment group was made by Dunnett's multiple test, with the p value less than 5% showing a significant difference.

vitamin D receptor = molecular target: T1, vitamin D receptor (Homo sapiens, UniProt P11473); assay: Affinity for vitamin D receptor; assay type: binding; details: relative to that of 1α,25-dihydroxyvitamin D3
T1 sequence (P11473 1-427): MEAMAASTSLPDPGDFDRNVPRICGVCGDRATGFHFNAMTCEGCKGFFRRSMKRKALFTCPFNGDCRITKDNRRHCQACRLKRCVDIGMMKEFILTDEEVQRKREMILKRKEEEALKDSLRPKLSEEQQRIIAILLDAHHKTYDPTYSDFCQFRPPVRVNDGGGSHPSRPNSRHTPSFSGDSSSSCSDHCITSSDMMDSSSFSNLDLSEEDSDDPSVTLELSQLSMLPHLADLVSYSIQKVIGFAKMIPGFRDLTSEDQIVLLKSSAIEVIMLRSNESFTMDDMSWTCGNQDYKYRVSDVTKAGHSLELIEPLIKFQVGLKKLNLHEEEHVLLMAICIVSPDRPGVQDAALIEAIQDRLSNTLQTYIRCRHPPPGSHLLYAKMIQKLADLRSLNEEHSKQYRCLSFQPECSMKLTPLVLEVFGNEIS

[4] = OVX rats, 0.1 µg/kg orally 5 times weekly, in comparison with the sham group and the OVX group

Row | blood Ca level (osteoporosis model rats [2]; [4]) | urinary Ca excretion (osteoporosis model rats [2]; [4]) | Inhibitory activity against AP-1 complex (AP-1 complex) [%] | Inhibitory activity against NF-κB family (NF-κB family) [%] | serum Ca concentration (osteoporosis model rats [3]; OVX rats, orally 0.75, 1.5 or 3 µg/kg twice daily for 3 months) | affinity for a vitamin D receptor (vitamin D receptor) [times] | Structure (SMILES) | VDRE-mediated transcription promoting activity (VDRE) [%] | decrease in bone mineral density (osteoporosis model rats [1]; 0.04 µg/kg subcutaneously 5 times weekly for 6 weeks) | decrease in bone mineral density by OVX (osteoporosis model rats [2]; 0.1 µg/kg orally 5 times weekly, third lumbar vertebra) | VDRE-mediated transcription promoting activity relative to that of 1α,25-dihydroxyvitamin D3 (VDRE; fraction of the activity of 1α,25-dihydroxyvitamin D3) | decrease in bone mineral density (osteoporosis model rats [1]; 0.1 µg/kg subcutaneously 5 times weekly for 6 weeks) | decrease in bone mineral density (osteoporosis model rats [1]; doses of 0.01 to 0.1 µg/kg subcutaneously 5 times weekly for 6 weeks) | effect of suppressing the decrease in bone mineral density (osteoporosis model rats [2]; OVX rats, orally 3 µg/kg once daily or 1.5 µg/kg twice daily for 5 weeks, third lumbar vertebra) | urinary Dpyr excretion increased by OVX (osteoporosis model rats [3]; oral treatment twice daily for 3 months, urinary deoxypyridinoline, bone resorption marker) | decrease in the bone strength by OVX (osteoporosis model rats [3]; orally 0.75, 1.5 or 3 µg/kg twice daily for 3 months, fifth lumbar vertebra) | decrease in the bone mineral density by OVX (osteoporosis model rats [3]; orally 0.75, 1.5 or 3 µg/kg twice daily for 3 months, second to fourth lumbar vertebra)
1 | – | – | – | – | – | – | C=C1/C(=C\C=C2/CCC[C@]3(C)[C@@H]([C@H](C)CCCC(C)(C)O)CC[C@@H]23)C[C@@H](O)C[C@@H]1O [1α,25-dihydroxyvitamin D3, reference compound] | 100.00 | significantly suppressed | – | – | – | – | – | – | – | –
2 | significantly increased | significantly increased | – | – | – | – | C=C1/C(=C\C=C2/CCC[C@]3(C)[C@@H]([C@H](C)CCCC(C)C)CC[C@@H]23)C[C@@H](O)C[C@@H]1O [1α-hydroxyvitamin D3] | – | – | significantly suppressed | – | – | – | – | – | – | –
3 | – | – | 3.74 | 5.19 | without increases | 0.8 | C=C1/C(=C\C=C2/CCC[C@]3(C)C([C@@H](C)SCC(O)(CC)CC)=CC[C@@H]23)C[C@@H](O)C[C@@H]1O [Compound 22, 1α,3β-dihydroxy-20(R)-(2-ethyl-2-hydroxybutylthio)-9,10-secopregna-5,7,10(19),16-tetraene] | 1032.20 | – | – | about 1/10 | significant suppressing effect | dose-dependent effect of suppressing the decrease in bone mineral density | comparable to or higher than that of 1α-hydroxyvitamin D3 | significantly decreased | significantly suppressed | significantly suppressed
